US10138211B2, “Crystalline forms of olaparib and manufacturing processes therefor” (ScinoPharm Taiwan, Ltd., priority 2016, dated 2018)
Converted amounts (≈) assume the structure as drawn.

Columns and labels:
[1] = Solubility of olaparib at 60° C. in solvents; type: physicochemical
Method: (§1) As used herein, the term “solvent” refers to a liquid substance capable of dissolving olaparib at a concentration of at least about 2.5% (w/w) at 60° C. The term “anti-solvent” refers to a liquid substance which is not capable of dissolving olaparib at a concentration of […] about 2.5% (w/w) at 60° C.

[2] = Solubility of olaparib at room temperature in solvents; type: physicochemical; settings: for solubility: organic solvent or mixture
Method: as §1

In the case of `O=C(c1cc(Cc2n[nH]c(=O)c3ccccc23)ccc1F)N1CCN(C(=O)C2CC2)CC1` [olaparib, 4-[(3-[(4-cyclopropylcarbonyl)piperazin-4-yl]carbonyl)-4-fluorophenyl]methyl(2H)phthalazin-1-one], the “Solubility of olaparib at 60° C.” value ([1]; ACN) is reported as <2.1 wt %, the “Solubility of olaparib at 60° C.” value ([1]; Cyclohexane) is reported as <2.1 wt % and the “Solubility of olaparib at 60° C.” value ([1]; DMAc) is reported as >23.5 wt %. The “Solubility of olaparib at 60° C.” value ([1]; EA) was <1.8 wt %, the “Solubility of olaparib at 60° C.” value ([1]; EtOH) was 2.6-2.9 wt % and the “Solubility of olaparib at 60° C.” value ([1]; IPA) was <2.1 wt %. For the same compound, the “Solubility of olaparib at 60° C.” value ([1]; MeOH) was 6.7-8.8 wt %, the “Solubility of olaparib at 60° C.” value ([1]; Pyridine) was >21.5 wt % and the “Solubility of olaparib at 60° C.” value ([1]; THF) was <1.9 wt %. The “Solubility of olaparib at 60° C.” value ([1]; Toluene) was <1.9 wt %, the “Solubility of olaparib at 60° C.” value ([1]; Xylenes) was <1.9 wt % and the solubility ([1]; acetonitrile (ACN), organic solvent or mixture, ACN) was < 16.2 mg/mL. The solubility ([1]; ethanol (EtOH), organic solvent or mixture, EtOH) was 21 to 23 mg/mL (≈ 48.3 to 52.9 mM), the solubility ([1]; isopropanol (IPA), organic solvent or mixture, IPA) was < 16.2 mg/mL and the solubility ([1]; methanol (MeOH), organic solvent or mixture, MeOH) was 53 to 70 mg/mL (≈ 122 to 161 mM). The “Solubility of olaparib at 60° C.” value ([1]; n-butanol) was <2.1 wt %, the “Solubility of olaparib at 60° C.” value ([1]; n-heptane) was <2.4 wt % and the solubility ([1]; organic solvent or mixture, Cyclohexane) was < 16.2 mg/mL. The solubility ([1]; organic solvent or mixture, DMAc) was > 220 mg/mL, the solubility ([1]; organic solvent or mixture, EA) was < 16.2 mg/mL and the solubility ([1]; organic solvent or mixture, Pyridine) was > 210 mg/mL. The solubility ([1]; organic solvent or mixture, THF) was < 16.9 mg/mL, the solubility ([1]; organic solvent or mixture, Toluene) was < 16.9 mg/mL and the solubility ([1]; organic solvent or mixture, Xylenes) was < 16.2 mg/mL. The solubility ([1]; organic solvent or mixture, n-butanol) was < 16.9 mg/mL, the solubility ([1]; organic solvent or mixture, n-heptane) was < 16.2 mg/mL and the “Solubility of olaparib at 60° C.” value ([1]; water) was <1.6 wt %. The solubility ([1]; water) was < 16.2 mg/mL, the “Solubility of olaparib at room temperature” value ([2]; AcOH) was >20.0 wt % and the “Solubility of olaparib at room temperature” value ([2]; DMSO) was >19.1 wt %. For the same compound, the solubility ([2]; acetic acid (AcOH), AcOH) was > 210 mg/mL and the solubility ([2]; DMSO) was > 210 mg/mL.
